Measured values: US20110021765A1, “FLUORINATED LANTHANIDE PROBES FOR 19F MAGNETIC RESONANCE APPLICATIONS” (priority 2007, published 2011)
“And” between values parts separate entries of the source, which are not always exact repeats. Equal entries are not always repeated.

Tests used:
Format in all cases: physicochemical
[1] = Comparative 19F NMR signal intensity of paramagnetic complexes versus diamagnetic [YL^1]; settings: 188 MHz (4.7 T), 298K
Protocol: A comparative analysis examined the ortho-CF3 resonance in ^19F NMR spectra of the diamagnetic Y complex, [YL^1] (R1 0.93 s^−1, {linewidth, ω1/2=2 Hz}) and the terbium (R1 90 s^−1 {.ω1/2 90 Hz} and Dy (R1 77 s^−1 {.ω1/2 35 Hz}) analogues. Using a relaxation delay of 3 times T1, ^19F spectra were acquired over a common time interval of 30 minutes (2 mM complex, 188 MHz (4.7 T), 298K, typical S/N ratio per mM was 100:1). The relative signal intensity ratios per mM of complex (peak height times peak width at half height; processing used a line-broadening function equal to half of the observed linewidth, for the given complex resonance) for observation of the major ortho-CF3 resonance in [TmL^1], [DyL^1] and [TbL^1] versus the diamagnetic analogue, [YL^1], were 52:1 22:1 and 41:1 respectively. This is consistent with the ability to increase the number of scans acquired for the faster relaxing CF3 resonance in the paramagnetic complexes.

[2] = 19F NMR chemical shifts and longitudinal relaxation rates at 188 MHz (4.7 T, 298K); settings: for Longitudinal relaxation rate R1 ortho CF3 group / Longitudinal relaxation rate R1 other CF3 group / Limiting 19F chemical shift δF ortho CF3 group / Limiting 19F chemical shift δF other CF3 group if present: 188 MHz; for Limiting 19F chemical shift δF ortho CF3 group / Limiting 19F chemical shift δF other CF3 group if present: pH 5.5, referred to NaCF3CO2 δF −76.1 ppm
Protocol: ^19F NMR chemical shifts and longitudinal relaxation rates for various lanthanide complexes of L^1, L^2 and L^3 were measured at 188 MHz (4.7 T, 298K).

[3] = Eu luminescence emission intensity ratio versus pH; settings: 298K, H2O, 0.1 M NaCl
[4] = 19F NMR pH titration, acid-base equilibrium fit; settings: ratio of integrated 19F intensities −59/−53 and −65/−64 ppm
Description: Solid lines: least-squares fits to the fast-exchange acid-base equilibrium equation for the chemical shift.
Solid lines: least-squares fits to the slow-exchange acid-base equilibrium equation for the NMR line intensity.
The NH group of [Ln.L^4] deprotonates in alkaline conditions, causing the CF3 group of [Ho.L^4] to shift from −55.1 ppm to −36.8 ppm under basic conditions (see FIG. 3). Because the acid-base equilibrium is fast in this system ([…] lanthanide re-coordination involved), only one signal is observed, with the chemical shift corresponding to the weighted average of the chemical shifts of the individual forms.
The higher pKa values in biofluids are the result of additional stabilization of the acidic form by carbonate coordination (see FIG. 4) (S. Aime, A. Barge, M. Botta, J. A. K. Howard, R. Kataky, M. P. Lowe, J. M. Moloney, D. Parker and A. S. de Sousa, Chem. Commun., 1999, 1047); (Y. Bretonniere, M. J. Cann, D. Parker and R. J. Slater, Org. Biomol. Chem., 2004, 2, 1624). The basic form exists as a mixture of two diastereomers, defined by the R or S configuration at the sulphur atom (Scheme 3). The experimental ratio is 6:1 (298 K, pH=8), resonating at −98 and −112 ppm respectively. […]

[5] = N-protonated complex, pH 5.5, 188 MHz

| Structure (SMILES) | Linewidth ω1/2 of ortho-CF3 resonance [1] [Hz] | Longitudinal relaxation rate R1 ortho CF3 group ([2]; pH 5.5) | Longitudinal relaxation rate R1 other CF3 group ([2]; pH 5.5) [s⁻¹] | Longitudinal relaxation rate R1 ortho CF3 group ([2]; pH 5.5, listed as yttrium (III) complex of ligand L^1) [s⁻¹] | Limiting 19F chemical shift δF ortho CF3 group [2] [ppm] | Limiting 19F chemical shift δF other CF3 group if present [2] [ppm] | δF ortho CF3 group, N-protonated complex (value in parentheses) [2, 5] [ppm] | δF other CF3 group, N-protonated complex (value in parentheses) [2, 5] [ppm] | R1 ortho CF3 group, N-protonated complex (value in parentheses) [2, 5] [s⁻¹] | R1 other CF3 group, N-protonated complex (value in parentheses) [2, 5] [s⁻¹] | Apparent protonation constant from Eu emission band intensity ratio [3] | Complex protonation constant pKMLH [4] |
| --- | --- | --- | --- | --- | --- | --- | --- | --- | --- | --- | --- | --- |
| O=C([O-])CN1CCN(CC(=O)[O-])CCN(CC(=O)Nc2ccc(C(F)(F)F)cc2C(F)(F)F)CCN(CC(=O)[O-])CC1.[Y+3] [[YL^1]] | 2 | 0.93 s⁻¹ and 0.9 s⁻¹ | ~0.9 | ~0.9 | −61.3 | −63.1 | – | – | – | – | – | – |
| O=C([O-])CN1CCN(CC(=O)[O-])CCN(CC(=O)Nc2ccc(C(F)(F)F)cc2C(F)(F)F)CCN(CC(=O)[O-])CC1.[Yb+3] [[YbL^1]] | – | 4.6 s⁻¹ | 1.7 | – | −65.4 | −59.6 | – | – | – | – | – | – |
| O=C([O-])CN1CCN(CC(=O)[O-])CCN(CC(=O)Nc2ccc(C(F)(F)F)cc2C(F)(F)F)CCN(CC(=O)[O-])CC1.[Tm+3] [[TmL^1]] | – | 16 s⁻¹ | 5.6 | – | −79.6 | −55 | – | – | – | – | – | – |
| O=C([O-])CN1CCN(CC[N-]S(=O)(=O)c2cc(C(F)(F)F)ccc2C(F)(F)F)CCN(CC(=O)[O-])CCN(CC(=O)[O-])CC1.[Tb+3] [[TbL^2]^−] | – | 71 s⁻¹ | 23 | – | −159 | −45 | −59 | −64 | – | – | – | – |
| O=C([O-])CN1CCN(CC[N-]S(=O)(=O)c2cc(C(F)(F)F)ccc2C(F)(F)F)CCN(CC(=O)[O-])CCN(CC(=O)[O-])CC1.[Eu+3] [[EuL^2]^−] | – | 2.5 s⁻¹ | 1.5 | – | −53 | −65 | −59 | −64 | 2.2 | 1.2 | 5.5 | 5.5 (±0.05) |
